Like-named read-outs stand apart in the source and are kept apart here.
How the values were obtained:
M1 muscarinic receptor = molecular target: T1, M1 muscarinic receptor (Homo sapiens, UniProt P11229); assay: Functional mobilization of intracellular calcium (FLIPR, Fluo-3), M1-CHO cells; type: cell-based; conditions: for Emax: 100% efficacy is the maximum response obtained with the Carbachol control, read-out: M1 Efficacy
T1 construct: expressed in transfected cells; host or cells: CHO cells (M1-CHO, under zeocin and G418 selection)
T1 sequence (P11229 1-460): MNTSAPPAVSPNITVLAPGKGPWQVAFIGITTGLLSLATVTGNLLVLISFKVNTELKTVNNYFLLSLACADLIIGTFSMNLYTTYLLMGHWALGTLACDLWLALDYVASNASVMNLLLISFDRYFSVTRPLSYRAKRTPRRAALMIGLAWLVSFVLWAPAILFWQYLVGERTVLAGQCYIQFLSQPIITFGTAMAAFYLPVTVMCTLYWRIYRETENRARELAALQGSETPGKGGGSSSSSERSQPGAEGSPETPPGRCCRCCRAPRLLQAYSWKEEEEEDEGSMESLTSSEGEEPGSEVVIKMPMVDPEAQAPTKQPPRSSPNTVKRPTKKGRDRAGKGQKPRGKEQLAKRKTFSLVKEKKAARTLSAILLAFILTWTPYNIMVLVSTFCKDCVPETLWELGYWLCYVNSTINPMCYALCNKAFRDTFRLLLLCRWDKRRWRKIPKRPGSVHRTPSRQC
Outline: (§1)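 Intracellular calcium was tracked by fluorescence (488/540 nm) over 60 sec after compound addition to dye-loaded CHO cells expressing the receptor. Inhibitory activity used a 15 min pre-incubation before carbachol at the subtype EC80.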

M4 muscarinic receptor = molecular target: T2, M4 muscarinic receptor (Homo sapiens, UniProt P08173); assay: Functional mobilization of intracellular calcium (FLIPR, Fluo-3), M4-CHO cells; type: cell-based; conditions: for Emax: 100% efficacy is the maximum response obtained with the Carbachol control, read-out: M4 Efficacy
T2 construct: expressed in transfected cells; host or cells: CHO cells (M4-CHO, under puromycin, zeocin and blasticidin selection)
T2 sequence (P08173 1-479): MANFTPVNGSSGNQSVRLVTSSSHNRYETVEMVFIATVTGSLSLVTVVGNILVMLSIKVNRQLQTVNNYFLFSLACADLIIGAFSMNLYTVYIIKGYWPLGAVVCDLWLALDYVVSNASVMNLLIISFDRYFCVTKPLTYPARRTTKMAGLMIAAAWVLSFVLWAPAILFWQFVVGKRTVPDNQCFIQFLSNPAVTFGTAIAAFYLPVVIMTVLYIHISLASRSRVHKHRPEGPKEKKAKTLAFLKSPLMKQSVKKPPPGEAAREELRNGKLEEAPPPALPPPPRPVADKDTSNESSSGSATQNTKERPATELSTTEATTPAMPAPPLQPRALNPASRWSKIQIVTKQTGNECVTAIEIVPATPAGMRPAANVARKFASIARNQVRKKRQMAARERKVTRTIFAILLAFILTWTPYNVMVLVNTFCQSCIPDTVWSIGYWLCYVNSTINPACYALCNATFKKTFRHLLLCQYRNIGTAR
Outline: as §1

[1] = compound nos. 1-454, M1-CHO cells, calcium mobilization
[2] = compound nos. 1-454, M4-CHO cells, calcium mobilization

| SMILES | Emax (M1 muscarinic receptor; compound nos. 1-454) | M1 Activity (M1 muscarinic receptor; [1]) | Emax (M4 muscarinic receptor; compound nos. 1-454) | M4 Activity (M4 muscarinic receptor; [2]) | Emax (M1 muscarinic receptor; compound nos. 455-509) | M1 Activity (M1 muscarinic receptor; compounds 455-509) | Emax (M4 muscarinic receptor; compound nos. 455-509) | M4 Activity (M4 muscarinic receptor; compounds 455-509) | M1 Activity (M1 muscarinic receptor; compound nos. 1-454) | M4 Activity (M4 muscarinic receptor; compound nos. 1-454) |
| --- | --- | --- | --- | --- | --- | --- | --- | --- | --- | --- |
| CCOC(=O)N1CCC(N2CCC3(CC2)CN(C(=O)OCCF)c2ccc(F)cc23)CC1 [compound 370] | 65 to 85% | +++ (activity was measured to be less than or equal to 0.7 μM) | > 70% | ++ (activity was measured to be between 0.1 μM and 4.0 μM) | – | – | – | – | – | – |
| CC(C)NC(=O)N1C2CCC1CC(N1CCC3(CC1)COc1ccc(F)cc13)C2 (centres unmarked) [compound 289] | < 65% | +++ (activity was measured to be less than or equal to 0.7 μM) | < 55% | + (activity was measured to be greater than or equal to 4.0 μM) | – | – | – | – | – | – |
| CCOC(=O)N1C2CCC1CC(N1CCC3(CC1)c1ccccc1C(=O)C3(C)C)C2 (centres unmarked) [compound 278] | 65 to 85% | ++ (activity was measured to be between 0.7 μM and 3.0 μM) | 55 to 70% | ++ (activity was measured to be between 0.1 μM and 4.0 μM) | – | – | – | – | – | – |
| CCOC(=O)N1CCC(N2CCC3(CC2)CN(C(C)=O)c2ccc(-c4ccc(C)cc4)cc23)CC1 [compound 58, ethyl 4-(1-acetyl-5-p-tolylspiro[indoline-3,4′-piperidine]-1′-yl)piperidine-1-carboxylate] | 65 to 85% | +++ (activity was measured to be less than or equal to 0.7 μM) | 55 to 70% | ++ (activity was measured to be between 0.1 μM and 4.0 μM) | – | – | – | – | – | – |
| CC(=O)N1CC2(CCN(C3CC4CCC(C3)N4C(=O)O[C@@H]3CCOC3)CC2)c2cc(F)ccc21 (some centres unmarked) [compound 67] | < 65% | +++ (activity was measured to be less than or equal to 0.7 μM) | < 55% | ++ (activity was measured to be between 0.1 μM and 4.0 μM) | – | – | – | – | – | – |
| O=C(O[C@@H]1CCOC1)N1CC2(CCN(C3CC4CCC(C3)N4C(=O)O[C@@H]3CCOC3)CC2)c2cc(F)ccc21 (some centres unmarked) [compound 112] | 65 to 85% | +++ (activity was measured to be less than or equal to 0.7 μM) | < 55% | ++ (activity was measured to be between 0.1 μM and 4.0 μM) | – | – | – | – | – | – |
| CC(=O)N1CC2(CCN(CC3=CCCCC3)CC2)c2cc(F)ccc21 [compound 163] | 65 to 85% | +++ (activity was measured to be less than or equal to 0.7 μM) | > 70% | ++ (activity was measured to be between 0.1 μM and 4.0 μM) | – | – | – | – | – | – |
| O=C(O[C@@H]1CCOC1)N1CC2(CCN(C3CC4CCC(C3)N4C(=O)O[C@@H]3CCOC3)CC2)c2cc(F)ccc21 (some centres unmarked) [compound 243] | 65 to 85% | +++ (activity was measured to be less than or equal to 0.7 μM) | 55 to 70% | + (activity was measured to be greater than or equal to 4.0 μM) | – | – | – | – | – | – |
| CCOC(=O)N1CCC(N2CCC3(CC2)CNc2ccc(Cl)cc23)CC1 [compound 19] | 65 to 85% | +++ (activity was measured to be less than or equal to 0.7 μM) | 55 to 70% | ++ (activity was measured to be between 0.1 μM and 4.0 μM) | – | – | – | – | – | – |
| COCCOC(=O)N1CCCC(N2CCC3(CC2)CN(C(C)=O)c2ccc(F)cc23)CC1 (centres unmarked) [compound 65] | 65 to 85% | ++ (activity was measured to be between 0.7 μM and 3.0 μM) | < 55% | + (activity was measured to be greater than or equal to 4.0 μM) | – | – | – | – | – | – |
| CCOC(=O)N1CCC(N2CCC3(CC2)CN(C(=O)C2CCCC2)c2ccc(F)cc23)CC1 [compound 17] | < 65% | ++ (activity was measured to be between 0.7 μM and 3.0 μM) | 55 to 70% | ++ (activity was measured to be between 0.1 μM and 4.0 μM) | – | – | – | – | – | – |
| CC(=O)NC1CC2(CCN(C[C@H]3C[C@H]4C=C[C@H]3C4)CC2)c2ccccc21 (some centres unmarked) [compound 213] | 65 to 85% | ++ (activity was measured to be between 0.7 μM and 3.0 μM) | < 55% | + (activity was measured to be greater than or equal to 4.0 μM) | – | – | – | – | – | – |
| Cc1ncc(N2CCC(N3CCC4(CCN(C(=O)N(C)C)c5ccccc54)CC3)CC2)nc1C [compound 461] | – | – | – | – | > 100% | ++ (activity was measured to be between 2.0 μM and 5.0 μM) | 25 to 100% | ++ (activity was measured to be between 2.0 μM and 5.0 μM) | – | – |
| Clc1ccc2c(c1)C1(CCN(C3CCCCCC3)CC1)CN2 [compound 333] | < 65% | + (activity was measured to be greater than or equal to 3.0 μM) | < 55% | + (activity was measured to be greater than or equal to 4.0 μM) | – | – | – | – | – | – |
| C1=C[C@H]2C[C@H]1C[C@H]2CN1CCC2(CCc3ccccc32)CC1 [compound 313] | < 65% | + (activity was measured to be greater than or equal to 3.0 μM) | < 55% | + (activity was measured to be greater than or equal to 4.0 μM) | – | – | – | – | – | – |
| CN(C)C(=O)N1CC2(CCN(C3CCN(c4ccc(F)cc4)CC3)CC2)c2cc(F)ccc21 [compound 439] | 65 to 85% | – | < 55% | – | – | – | – | – | ++ (activity was measured to be between 0.7 μM and 3.0 μM) | +++ (activity was measured to be less than or equal to 0.1 μM) |
| O=C(OC1CCC1)N1C2CCC1CC(N1CCC3(CC1)C(=O)Nc1ccccc13)C2 (centres unmarked) [compound 217] | < 65% | ++ (activity was measured to be between 0.7 μM and 3.0 μM) | < 55% | + (activity was measured to be greater than or equal to 4.0 μM) | – | – | – | – | – | – |
| COC(=O)N1CC2(CCN(C3CC4CCC(C3)N4C(=O)O[C@H]3CCOC3)CC2)c2cc(F)ccc21 (some centres unmarked) [compound 96] | 65 to 85% | ++ (activity was measured to be between 0.7 μM and 3.0 μM) | < 55% | + (activity was measured to be greater than or equal to 4.0 μM) | – | – | – | – | – | – |
| Cc1ccc2c(c1)C1(CCN(C3CC4CCC3C4)CC1)CN2C(=O)c1ccno1 (centres unmarked) [compound 292] | 65 to 85% | ++ (activity was measured to be between 0.7 μM and 3.0 μM) | 55 to 70% | + (activity was measured to be greater than or equal to 4.0 μM) | – | – | – | – | – | – |
| CC(=O)N1CC2(CCN(C3CCCN(C(=O)OC(C)C)CC3)CC2)c2cc(F)ccc21 (centres unmarked) [compound 395] | < 65% | – | < 55% | – | – | – | – | – | +++ (activity was measured to be less than or equal to 0.7 μM) | + (activity was measured to be greater than or equal to 4.0 μM) |
| O=C(O[C@@H]1CCOC1)N1CC2(CCN(C3CC4CCC(C3)N4C(=O)O[C@H]3CCOC3)CC2)c2cc(F)ccc21 (some centres unmarked) [compound 93] | < 65% | ++ (activity was measured to be between 0.7 μM and 3.0 μM) | < 55% | ++ (activity was measured to be between 0.1 μM and 4.0 μM) | – | – | – | – | – | – |
| CC(=O)N[C@H]1CC2(CCN(C3CCCCCCC3)CC2)c2ccccc21 [compound 261] | < 65% | ++ (activity was measured to be between 0.7 μM and 3.0 μM) | < 55% | + (activity was measured to be greater than or equal to 4.0 μM) | – | – | – | – | – | – |
| CCOC(=O)N1CCC(N2CCC3(CC2)CN(C(C)=O)c2ccc(-c4ccc(C#N)cc4)cc23)CC1 [compound 253] | 65 to 85% | ++ (activity was measured to be between 0.7 μM and 3.0 μM) | 55 to 70% | + (activity was measured to be greater than or equal to 4.0 μM) | – | – | – | – | – | – |
